Results published in US20260355325A1, “DIMER COMPOUNDS” (KESMALEA THERAPEUTICS LIMITED, priority 2023, published 2026).

Target: T1, BRD4 (Homo sapiens, UniProt O60885)
T1 construct: Flp-In LgBiT HEK293 cells; lytic luminescence degradation readout
Experiment: BRD4 HiBiT Assay (degradation of endogenous BRD4 in HiBiT knock-in Flp-In LgBiT HEK293 cells)
Type: cell-based
Excerpt: The purpose of the BRD4 HiBiT Assay was to assess the binding affinity of the dimer to BRD4 and subsequent protein degradation.
BRD4 HiBiT cells (Flp-In™ LgBiT and KI HiBiT) were generated by first creating a Flp-In™293 stable cell line, transfecting in the pFRT serial vector containing an integrated Flp recombination target (FRT) site (Thermo Fisher Scientific, Waltham, MA) to HEK293 cells (ATCC, Manassas, VA). The LgBiT expression sequence (Promega Corporation, Madison, WA) was then introduced into the genome via Flp recombinase-mediated DNA recombination at the FRT site. HiBiT sequence (Promega Corporation, Madison, WA) was then knocked in to the endogenous BRD4 protein in the Flp-In™ LgBiT HEK293 cells and successful clones verifying by sequencing. Work on BRD4 HiBiT cell line was performed under license from Promega Corporation (Madison, WA). Cells were maintained in DMEM (Invitrogen™, Waltham, MA) supplemented with 10% FBS (AusGeneX, Molendinar, Australia) and 1% penicillin/streptomycin (Invitrogen™, Waltham, MA) in a humidified incubator at 5% CO2, 37° C.
Compounds were dissolved in DMSO (10 mM), serially diluted from 10 mM to 1.5 nM, and pre-incubated for 2 hours. Exponentially growing cells were seeded at 1×10^4 cells per well of 384 well plate (Corning, New York #3570). Cells were treated with compound for 6 or 48 hours. Following treatment, Nano-Glo® HiBiT Lytic Detection reagent (Promega Corporation, Madison, WA) was added according to manufacturer's instructions, and signal read using BMG CLARIOstar plate reader (BMG Labtech, Ortenburg, Germany). Each data point was performed in duplicate for every experiment. A DC50 value was calculated from linear regression analysis of the plots.

[1] = BRD4 degradation in cells at 6-hour timepoint
[2] = BRD4 degradation in cells at 48-hour timepoint

Row | DC50 [1] | DC50 [2] | SMILES
1 | < 100 nM |  | Cc1sc2c(c1C)C(c1ccc(Cl)cc1)=N[C@@H](CC(=O)NCC[C@]13OB(c4ccccc4CCCC(=O)Nc4cccc5c4C(=O)N(C4CCC(=O)NC4=O)C5=O)O[C@H]1C[C@H]1C[C@@H]3C1(C)C)c1nnc(C)n1-2 (mixture of isomers) [Example 4, 4-(2-((3aR,4R,6R,7aS)-3a-(2-(2-((S)-4-(4-chlorophenyl)-2,3,9-trimethyl-6H-thieno[3,2-f][1,2,4]triazolo[4,3-a][1,4]diazepin-6-yl)acetamido)ethyl)-5,5-dimethylhexahydro-4,6-methanobenzo[d][1,3,2]dioxaborol-2-yl)phenyl)-N-(2-(2,6-dioxopiperidin-3-yl)-1,3-dioxoisoindolin-4-yl)butanamide]
2 | < 100 nM |  | Cc1ncsc1-c1ccc([C@H](C)NC(=O)[C@@H]2C[C@@H](O)CN2C(=O)[C@H](c2cc(OCc3ccccc3B3O[C@@H]4[C@H]5CC[C@H](C5)[C@]4(CCCNC(=O)C[C@@H]4N=C(c5ccc(Cl)cc5)c5c(sc(C)c5C)-n5c(C)nnc54)O3)no2)C(C)C)cc1 (single isomer, unassigned) [Example 9]
3 |  | 1000 to 10000 nM | Cc1cc(C(C(=O)N2C[C@H](O)C[C@H]2C(=O)NCc2ccc(Cl)cc2B2O[C@H]3C[C@H]4C[C@H](C4(C)C)[C@@]3(CCNC(=O)C[C@@H]3N=C(c4ccc(Cl)cc4)c4c(sc(C)c4C)-n4c(C)nnc43)O2)C(C)C)on1 (single isomer, unassigned) [Example 10]
4 |  | 1000 to 10000 nM | Cc1cc(C(C(=O)N2C[C@H](O)C[C@H]2C(=O)NCc2ccc(Cl)cc2OC[C@]23OB(c4ccccc4CCNC(=O)C[C@@H]4N=C(c5ccc(Cl)cc5)c5c(sc(C)c5C)-n5c(C)nnc54)O[C@H]2C[C@H]2C[C@@H]3C2(C)C)C(C)C)on1 (single isomer, unassigned) [Example 11]
5 | < 100 nM |  | Cc1ncsc1-c1ccc(CNC(=O)[C@@H]2C[C@@H](O)CN2C(=O)C(c2cc(OCc3ccccc3B3O[C@@H]4C[C@@H]5C[C@@H](C5(C)C)[C@]4(CCNC(=O)C[C@@H]4N=C(c5ccc(Cl)cc5)c5c(sc(C)c5C)-n5c(C)nnc54)O3)no2)C(C)C)cc1 (single isomer, unassigned) [Example 13]
6 | < 100 nM |  | Cc1ncsc1-c1ccc(CNC(=O)[C@@H]2C[C@@H](O)CN2C(=O)[C@@H](NC(=O)CCc2ccccc2B2O[C@H]3C[C@H]4C[C@H](C4(C)C)[C@@]3(CCNC(=O)C[C@@H]3N=C(c4ccc(Cl)cc4)c4c(sc(C)c4C)-n4c(C)nnc43)O2)C(C)(C)C)cc1 [Example 1, (2S,4R)-1-((S)-2-(3-(2-((3aR,4R,6R,7aS)-3a-(2-(2-((S)-4-(4-chlorophenyl)-2,3,9-trimethyl-6H-thieno[3,2-f][1,2,4]triazolo[4,3-a][1,4]diazepin-6-yl)acetamido)ethyl)-5,5-dimethylhexahydro-4,6-methanobenzo[d][1,3,2]dioxaborol-2-yl)phenyl)propanamido)-3,3-dimethylbutanoyl)-4-hydroxy-N-(4-(4-methylthiazol-5-yl)benzyl)pyrrolidine-2-carboxamide]
7 | < 100 nM |  | Cc1sc2c(c1C)C(c1ccc(Cl)cc1)=N[C@@H](CC(=O)NCCC[C@]13OB(c4ccccc4CCCC(=O)Nc4cccc5c4C(=O)N(C4CCC(=O)NC4=O)C5=O)O[C@H]1C[C@H]1C[C@@H]3C1(C)C)c1nnc(C)n1-2 (stereo partly drawn) [Example 2, 4-(2-((3aR,4R,6R,7aS)-3a-(3-(2-((S)-4-(4-chlorophenyl)-2,3,9-trimethyl-6H-thieno[3,2-f][1,2,4]triazolo[4,3-a][1,4]diazepin-6-yl)acetamido)propyl)-5,5-dimethylhexahydro-4,6-methanobenzo[d][1,3,2]dioxaborol-2-yl)phenyl)-N-(2-(2,6-dioxopiperidin-3-yl)-1,3-dioxoisoindolin-4-yl)butanamide]
8 | < 100 nM |  | Cc1ncsc1-c1ccc(CNC(=O)[C@@H]2C[C@@H](O)CN2C(=O)[C@@H](NC(=O)CCc2cccc(F)c2B2O[C@H]3C[C@H]4C[C@H](C4(C)C)[C@@]3(CCNC(=O)C[C@@H]3N=C(c4ccc(Cl)cc4)c4c(sc(C)c4C)-n4c(C)nnc43)O2)C(C)(C)C)cc1 [Example 3, (2S,4R)-1-((2S)-2-(3-(2-((3aR,4R,6R,7aS)-3a-(2-(2-((6S)-4-(4-chlorophenyl)-2,3,9-trimethyl-6H-thieno[3,2-f][1,2,4]triazolo[4,3-a][1,4]diazepin-6-yl)acetamido)ethyl)-5,5-dimethylhexahydro-4,6-methanobenzo[d][1,3,2]dioxaborol-2-yl)-3-fluorophenyl)propanamido)-3,3-dimethylbutanoyl)-4-hydroxy-N-(4-(4-methylthiazol-5-yl)benzyl)pyrrolidine-2-carboxamide]
9 | < 100 nM |  | Cc1ncsc1-c1ccc(CNC(=O)[C@@H]2C[C@@H](O)CN2C(=O)[C@@H](NC(=O)CCc2ccccc2B2O[C@H]3C[C@H]4C[C@H](C4(C)C)[C@@]3(CCCNC(=O)C[C@@H]3N=C(c4ccc(Cl)cc4)c4c(sc(C)c4C)-n4c(C)nnc43)O2)C(C)(C)C)cc1 [Example 5, (2S,4R)-1-((S)-2-(3-(2-((3aR,4R,6R,7aS)-3a-(3-(2-((S)-4-(4-chlorophenyl)-2,3,9-trimethyl-6H-thieno[3,2-f][1,2,4]triazolo[4,3-a][1,4]diazepin-6-yl)acetamido)propyl)-5,5-dimethylhexahydro-4,6-methanobenzo[d][1,3,2]dioxaborol-2-yl)phenyl)propanamido)-3,3-dimethylbutanoyl)-4-hydroxy-N-(4-(4-methylthiazol-5-yl)benzyl)pyrrolidine-2-carboxamide]
10 | < 100 nM |  | Cc1ncsc1-c1ccc([C@H](C)NC(=O)[C@@H]2C[C@@H](O)CN2C(=O)[C@@H](NC(=O)CCc2ccccc2B2O[C@H]3C[C@H]4C[C@H](C4(C)C)[C@@]3(CCNC(=O)C[C@@H]3N=C(c4ccc(Cl)cc4)c4c(sc(C)c4C)-n4c(C)nnc43)O2)C(C)(C)C)cc1 [Example 6, (2S,4R)-1-((S)-2-(3-(2-((3aR,4R,6R,7aS)-3a-(2-(2-((S)-4-(4-chlorophenyl)-2,3,9-trimethyl-6H-thieno[3,2-f][1,2,4]triazolo[4,3-a][1,4]diazepin-6-yl)acetamido)ethyl)-5,5-dimethylhexahydro-4,6-methanobenzo[d][1,3,2]dioxaborol-2-yl)phenyl)propanamido)-3,3-dimethylbutanoyl)-4-hydroxy-N—((S)-1-(4-(4-methylthiazol-5-yl)phenyl)ethyl)pyrrolidine-2-carboxamide]
11 | < 100 nM |  | Cc1ncsc1-c1ccc([C@H](C)NC(=O)[C@@H]2C[C@@H](O)CN2C(=O)[C@@H](NC(=O)CCc2ccccc2B2O[C@H]3C[C@H]4C[C@H](C4(C)C)[C@@]3(CCCNC(=O)C[C@@H]3N=C(c4ccc(Cl)cc4)c4c(sc(C)c4C)-n4c(C)nnc43)O2)C(C)(C)C)cc1 [Example 7, (2S,4R)-1-((S)-2-(3-(2-((3aR,4R,6R,7aS)-3a-(3-(2-((S)-4-(4-chlorophenyl)-2,3,9-trimethyl-6H-thieno[3,2-f][1,2,4]triazolo[4,3-a][1,4]diazepin-6-yl)acetamido)propyl)-5,5-dimethylhexahydro-4,6-methanobenzo[d][1,3,2]dioxaborol-2-yl)phenyl)propanamido)-3,3-dimethylbutanoyl)-4-hydroxy-N—((S)-1-(4-(4-methylthiazol-5-yl)phenyl)ethyl)pyrrolidine-2-carboxamide]
12 | < 100 nM |  | Cc1sc2c(c1C)C(c1ccc(Cl)cc1)=N[C@@H](CC(=O)NCCC[C@@]13OB(c4ccccc4CCC4CN(c5ccc(N6CCC(=O)NC6=O)cc5)C4)O[C@@H]1C[C@@H]1C[C@H]3C1(C)C)c1nnc(C)n1-2 [Example 8, 2-((S)-4-(4-chlorophenyl)-2,3,9-trimethyl-6H-thieno[3,2-f][1,2,4]triazolo[4,3-a][1,4]diazepin-6-yl)-N-(3-((3aS,4S,6S,7aR)-2-(2-(2-(1-(4-(2,4-dioxotetrahydropyrimidin-1(2H)-yl)phenyl)azetidin-3-yl)ethyl)phenyl)-5,5-dimethyltetrahydro-4,6-methanobenzo[d][1,3,2]dioxaborol-3a(4H)-yl)propyl)acetamide]
13 |  | 1000 to 10000 nM | Cc1cc([C@H](C(=O)N2C[C@H](O)C[C@H]2C(=O)NCc2ccc(Cl)cc2OCCCB2O[C@H]3C[C@H]4C[C@H](C4(C)C)[C@@]3(CCNC(=O)C[C@@H]3N=C(c4ccc(Cl)cc4)c4c(sc(C)c4C)-n4c(C)nnc43)O2)C(C)C)on1 [Example 12, (2S,4R)—N-(4-chloro-2-(3-((3aR,4R,6R,7aS)-3a-(2-(2-((S)-4-(4-chlorophenyl)-2,3,9-trimethyl-6H-thieno[3,2-f][1,2,4]triazolo[4,3-a][1,4]diazepin-6-yl)acetamido)ethyl)-5,5-dimethylhexahydro-4,6-methanobenzo[d][1,3,2]dioxaborol-2-yl)propoxy)benzyl)-4-hydroxy-1-((R)-3-methyl-2-(3-methylisoxazol-5-yl)butanoyl)pyrrolidine-2-carboxamide]
